ChEMBL document CHEMBL4507298 (2021)

Experiments:
[1] = molecular target: T1, 5-hydroxytryptamine receptor 3A (Homo sapiens) (UniProt P46098); test: 5-HT3 (h) CEREP ligand profiling; details: Compound concentration 10.0 uM
T1 sequence (whole entry): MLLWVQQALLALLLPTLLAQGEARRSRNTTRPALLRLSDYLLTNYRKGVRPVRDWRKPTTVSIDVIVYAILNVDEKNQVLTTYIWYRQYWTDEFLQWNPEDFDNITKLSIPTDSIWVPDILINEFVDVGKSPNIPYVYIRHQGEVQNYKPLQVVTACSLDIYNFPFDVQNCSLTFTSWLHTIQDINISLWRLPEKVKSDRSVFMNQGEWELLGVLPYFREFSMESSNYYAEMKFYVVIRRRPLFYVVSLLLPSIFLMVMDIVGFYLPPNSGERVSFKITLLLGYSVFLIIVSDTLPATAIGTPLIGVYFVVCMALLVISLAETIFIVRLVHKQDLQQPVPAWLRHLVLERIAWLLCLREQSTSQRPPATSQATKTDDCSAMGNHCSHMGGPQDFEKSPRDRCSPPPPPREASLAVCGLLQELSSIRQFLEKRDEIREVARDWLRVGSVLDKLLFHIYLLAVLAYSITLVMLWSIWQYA

[2] = molecular target: Interleukin-1 receptor-associated kinase 4 (Homo sapiens) (UniProt Q9NWZ3); details: Compound concentration 1000.0 nM
Interleukin-1 receptor-associated kinase 4 (Homo sapiens), sequence (Q9NWZ3 whole entry): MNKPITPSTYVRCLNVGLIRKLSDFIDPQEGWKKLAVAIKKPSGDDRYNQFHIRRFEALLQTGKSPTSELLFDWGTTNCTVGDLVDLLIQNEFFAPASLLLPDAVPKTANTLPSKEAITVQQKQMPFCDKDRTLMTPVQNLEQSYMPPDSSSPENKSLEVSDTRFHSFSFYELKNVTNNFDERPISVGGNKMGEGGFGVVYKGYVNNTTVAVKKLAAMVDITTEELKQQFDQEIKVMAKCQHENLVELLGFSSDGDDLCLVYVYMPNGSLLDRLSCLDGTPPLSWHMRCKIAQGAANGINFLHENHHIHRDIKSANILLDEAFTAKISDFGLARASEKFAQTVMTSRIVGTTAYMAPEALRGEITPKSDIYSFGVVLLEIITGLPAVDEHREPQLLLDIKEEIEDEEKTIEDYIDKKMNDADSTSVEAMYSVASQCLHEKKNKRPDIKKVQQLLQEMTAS

[3] = molecular target: Mitogen-activated protein kinase kinase kinase kinase 1 (Homo sapiens) (UniProt Q92918); details: Compound concentration 1000.0 nM
[4] = molecular target: Dual specificity mitogen-activated protein kinase kinase 3 (Homo sapiens) (UniProt P46734); details: Compound concentration 1000.0 nM
[5] = molecular target: Serine/threonine-protein kinase WNK1 (Homo sapiens) (UniProt Q9H4A3); details: Compound concentration 1000.0 nM
[6] = test system: Receptor-type tyrosine-protein kinase FLT3 (Homo sapiens), P36888 [N841I]; details: Compound concentration 1000.0 nM
[7] = molecular target: Leukotriene B4 receptor 1 (Homo sapiens, UniProt Q15722); test: Binding assay (LTB4R )
[8] = molecular target: Aurora kinase C (Homo sapiens) (UniProt Q9UQB9); details: Compound concentration 1000.0 nM
[9] = molecular target: Prostaglandin G/H synthase 2 (Homo sapiens) (UniProt P35354); test: COX2 (h) CEREP ligand profiling; details: Compound concentration 10.0 uM
[10] = molecular target: Dual specificity mitogen-activated protein kinase kinase 4 (Homo sapiens) (UniProt P45985); details: Compound concentration 1000.0 nM
Dual specificity mitogen-activated protein kinase kinase 4 (Homo sapiens), sequence (P45985 whole entry, canonical isoform): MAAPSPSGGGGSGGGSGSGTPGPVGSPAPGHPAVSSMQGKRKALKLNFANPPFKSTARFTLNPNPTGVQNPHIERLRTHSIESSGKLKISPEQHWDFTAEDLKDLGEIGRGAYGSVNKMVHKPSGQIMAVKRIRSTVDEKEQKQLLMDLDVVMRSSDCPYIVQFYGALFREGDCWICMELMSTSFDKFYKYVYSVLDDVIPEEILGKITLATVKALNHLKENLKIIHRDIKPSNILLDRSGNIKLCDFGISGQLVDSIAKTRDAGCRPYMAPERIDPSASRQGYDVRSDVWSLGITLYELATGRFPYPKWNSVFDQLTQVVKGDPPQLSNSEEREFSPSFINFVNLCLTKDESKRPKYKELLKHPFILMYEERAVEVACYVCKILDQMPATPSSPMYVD

[11] = test system: Phosphatidylinositol 4,5-bisphosphate 3-kinase catalytic subunit alpha isoform (Homo sapiens), P42336 [I800L]; details: Compound concentration 1000.0 nM
[12] = molecular target: Prostaglandin F2-alpha receptor (Homo sapiens, UniProt P43088); test: Binding assay (PTGFR)
[13] = molecular target: Tumor necrosis factor (Homo sapiens) (UniProt P01375); test: TNF-alpha (h) CEREP ligand profiling; details: Compound concentration 10.0 uM
Tumor necrosis factor (Homo sapiens), sequence (P01375 whole entry): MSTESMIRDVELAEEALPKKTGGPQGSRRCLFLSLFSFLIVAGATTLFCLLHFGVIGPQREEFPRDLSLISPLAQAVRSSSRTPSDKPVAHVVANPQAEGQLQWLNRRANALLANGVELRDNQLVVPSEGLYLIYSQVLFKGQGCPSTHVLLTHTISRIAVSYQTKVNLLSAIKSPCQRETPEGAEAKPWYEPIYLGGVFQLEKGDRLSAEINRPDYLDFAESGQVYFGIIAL

[14] = molecular target: Tyrosine-protein kinase Fer (Homo sapiens) (UniProt P16591); details: Compound concentration 1000.0 nM
Tyrosine-protein kinase Fer (Homo sapiens), sequence (P16591 whole entry, looked up): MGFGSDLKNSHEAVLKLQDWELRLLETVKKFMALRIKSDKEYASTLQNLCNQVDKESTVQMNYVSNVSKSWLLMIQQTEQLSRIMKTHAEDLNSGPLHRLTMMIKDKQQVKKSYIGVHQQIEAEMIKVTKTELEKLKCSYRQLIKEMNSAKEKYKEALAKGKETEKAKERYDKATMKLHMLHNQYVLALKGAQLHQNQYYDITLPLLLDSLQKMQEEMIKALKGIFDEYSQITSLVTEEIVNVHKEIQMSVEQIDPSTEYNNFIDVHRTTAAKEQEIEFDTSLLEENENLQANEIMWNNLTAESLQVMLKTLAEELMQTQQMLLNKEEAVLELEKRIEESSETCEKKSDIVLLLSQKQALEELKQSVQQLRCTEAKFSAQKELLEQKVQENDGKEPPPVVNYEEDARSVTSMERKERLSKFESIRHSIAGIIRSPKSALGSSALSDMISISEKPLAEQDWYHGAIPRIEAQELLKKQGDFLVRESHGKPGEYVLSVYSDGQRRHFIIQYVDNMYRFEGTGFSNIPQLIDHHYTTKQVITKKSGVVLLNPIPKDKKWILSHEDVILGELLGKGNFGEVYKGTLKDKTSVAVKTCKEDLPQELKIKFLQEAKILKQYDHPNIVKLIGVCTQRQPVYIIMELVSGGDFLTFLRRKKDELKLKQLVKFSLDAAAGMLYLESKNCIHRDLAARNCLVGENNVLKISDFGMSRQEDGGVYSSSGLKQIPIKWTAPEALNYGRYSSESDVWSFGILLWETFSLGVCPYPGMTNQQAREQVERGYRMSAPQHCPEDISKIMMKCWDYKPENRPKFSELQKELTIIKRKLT

[15] = molecular target: Serine/threonine-protein kinase Sgk1 (Homo sapiens) (UniProt O00141); details: Compound concentration 1000.0 nM
[16] = molecular target: Tyrosine-protein kinase Mer (Homo sapiens) (UniProt Q12866); details: Compound concentration 1000.0 nM
Tyrosine-protein kinase Mer (Homo sapiens), sequence (Q12866 whole entry): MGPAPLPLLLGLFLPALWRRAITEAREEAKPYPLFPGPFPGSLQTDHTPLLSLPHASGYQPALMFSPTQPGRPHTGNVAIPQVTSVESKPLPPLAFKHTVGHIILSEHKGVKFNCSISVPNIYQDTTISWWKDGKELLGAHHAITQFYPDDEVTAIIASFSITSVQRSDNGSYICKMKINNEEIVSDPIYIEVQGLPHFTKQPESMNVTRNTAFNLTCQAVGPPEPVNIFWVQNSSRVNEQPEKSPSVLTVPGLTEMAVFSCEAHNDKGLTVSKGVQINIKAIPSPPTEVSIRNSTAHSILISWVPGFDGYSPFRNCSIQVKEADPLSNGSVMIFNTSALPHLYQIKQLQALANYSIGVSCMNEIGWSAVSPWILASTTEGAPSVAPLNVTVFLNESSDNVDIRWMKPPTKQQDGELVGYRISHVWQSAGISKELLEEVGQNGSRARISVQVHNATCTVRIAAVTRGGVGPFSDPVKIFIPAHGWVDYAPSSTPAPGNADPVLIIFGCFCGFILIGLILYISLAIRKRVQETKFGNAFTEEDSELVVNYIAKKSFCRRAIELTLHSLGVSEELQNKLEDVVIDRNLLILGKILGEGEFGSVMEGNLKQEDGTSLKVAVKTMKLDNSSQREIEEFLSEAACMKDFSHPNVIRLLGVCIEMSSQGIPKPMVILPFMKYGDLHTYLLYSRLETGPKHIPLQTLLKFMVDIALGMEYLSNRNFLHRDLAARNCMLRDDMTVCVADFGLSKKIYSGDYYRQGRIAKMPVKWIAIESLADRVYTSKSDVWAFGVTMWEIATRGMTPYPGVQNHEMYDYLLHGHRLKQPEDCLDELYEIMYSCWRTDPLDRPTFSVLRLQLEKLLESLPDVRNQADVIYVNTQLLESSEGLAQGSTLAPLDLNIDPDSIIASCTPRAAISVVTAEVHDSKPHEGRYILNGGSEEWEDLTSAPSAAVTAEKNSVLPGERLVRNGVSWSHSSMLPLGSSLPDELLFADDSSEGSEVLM

[17] = molecular target: 5-hydroxytryptamine receptor 1A (Homo sapiens) (UniProt P08908); test: 5-HT1A (h) CEREP ligand profiling; details: Compound concentration 10.0 uM
[18] = test system: Receptor-type tyrosine-protein kinase FLT3 (Homo sapiens), P36888 [D835H]; details: Compound concentration 1000.0 nM
[19] = molecular target: Inhibitor of nuclear factor kappa-B kinase subunit epsilon (Homo sapiens) (UniProt Q14164); details: Compound concentration 1000.0 nM
[20] = test system: Tyrosine-protein kinase ABL1 (Homo sapiens), P00519 [H396P]; details: Compound concentration 1000.0 nM
[21] = test system: Fibroblast growth factor receptor 3 (Homo sapiens), P22607 [G697C]; details: Compound concentration 1000.0 nM
[22] = molecular target: Cyclin-dependent kinase 19 (Homo sapiens) (UniProt Q9BWU1); details: Compound concentration 1000.0 nM
[23] = molecular target: T2, D(4) dopamine receptor (Homo sapiens) (UniProt P21917); test: D4.4 (h) CEREP ligand profiling; details: Compound concentration 10.0 uM
T2 sequence (whole entry): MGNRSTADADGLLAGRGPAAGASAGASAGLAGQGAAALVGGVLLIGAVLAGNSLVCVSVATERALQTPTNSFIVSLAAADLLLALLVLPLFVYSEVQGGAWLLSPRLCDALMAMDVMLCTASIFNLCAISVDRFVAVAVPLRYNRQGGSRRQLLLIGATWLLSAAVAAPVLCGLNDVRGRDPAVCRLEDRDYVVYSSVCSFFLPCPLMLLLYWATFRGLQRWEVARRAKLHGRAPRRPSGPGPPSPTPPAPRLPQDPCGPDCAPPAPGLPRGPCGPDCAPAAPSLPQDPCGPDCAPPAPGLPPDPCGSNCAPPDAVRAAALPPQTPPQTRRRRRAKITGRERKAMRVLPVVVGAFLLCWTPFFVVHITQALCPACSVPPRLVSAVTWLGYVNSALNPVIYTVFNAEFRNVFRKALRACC

[24] = molecular target: Death-associated protein kinase 2 (Homo sapiens) (UniProt Q9UIK4); details: Compound concentration 1000.0 nM
[25] = molecular target: Serine/threonine-protein kinase PAK 3 (Homo sapiens) (UniProt O75914); details: Compound concentration 1000.0 nM
Serine/threonine-protein kinase PAK 3 (Homo sapiens), sequence (O75914 whole entry, looked up): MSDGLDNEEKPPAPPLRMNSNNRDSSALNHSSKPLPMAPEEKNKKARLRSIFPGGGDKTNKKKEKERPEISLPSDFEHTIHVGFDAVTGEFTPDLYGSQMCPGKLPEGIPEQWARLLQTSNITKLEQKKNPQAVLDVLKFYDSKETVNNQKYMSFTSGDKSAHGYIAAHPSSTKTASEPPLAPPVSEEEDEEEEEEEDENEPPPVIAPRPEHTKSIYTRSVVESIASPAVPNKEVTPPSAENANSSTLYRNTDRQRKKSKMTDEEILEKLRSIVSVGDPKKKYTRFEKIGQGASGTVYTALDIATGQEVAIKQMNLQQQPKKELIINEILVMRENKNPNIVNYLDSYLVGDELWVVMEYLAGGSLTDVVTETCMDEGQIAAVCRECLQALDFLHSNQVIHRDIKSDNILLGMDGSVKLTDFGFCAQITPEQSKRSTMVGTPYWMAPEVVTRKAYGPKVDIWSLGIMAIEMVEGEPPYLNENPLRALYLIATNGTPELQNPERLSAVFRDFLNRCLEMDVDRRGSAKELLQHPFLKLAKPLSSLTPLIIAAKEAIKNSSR

[26] = molecular target: Serine/threonine-protein kinase pim-1 (Homo sapiens) (UniProt P11309); details: Compound concentration 1000.0 nM
[27] = molecular target: 5-hydroxytryptamine receptor 1B (Homo sapiens) (UniProt P28222); test: 5-HT1B CEREP ligand profiling; details: Compound concentration 10.0 uM
[28] = molecular target: Endothelin receptor type B (Homo sapiens) (UniProt P24530); test: ETB (h) CEREP ligand profiling; details: Compound concentration 10.0 uM
[29] = molecular target: Cysteinyl leukotriene receptor 1 (Homo sapiens) (UniProt Q9Y271); test: LTD4 (h) (CysLT1) CEREP ligand profiling; details: Compound concentration 10.0 uM
Cysteinyl leukotriene receptor 1 (Homo sapiens), sequence (Q9Y271 whole entry): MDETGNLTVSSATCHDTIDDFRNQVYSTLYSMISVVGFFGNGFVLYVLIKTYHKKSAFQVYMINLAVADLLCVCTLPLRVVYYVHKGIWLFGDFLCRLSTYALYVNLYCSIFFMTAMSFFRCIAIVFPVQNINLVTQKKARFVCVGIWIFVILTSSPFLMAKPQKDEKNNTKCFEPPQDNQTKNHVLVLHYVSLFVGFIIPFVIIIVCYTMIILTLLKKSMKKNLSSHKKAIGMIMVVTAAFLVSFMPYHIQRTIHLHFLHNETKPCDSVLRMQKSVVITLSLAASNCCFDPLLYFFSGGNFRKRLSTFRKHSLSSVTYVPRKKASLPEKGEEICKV

[30] = molecular target: Melanocyte-stimulating hormone receptor (Homo sapiens) (UniProt Q01726); test: MC1 CEREP ligand profiling; details: Compound concentration 10.0 uM
[31] = molecular target: Non-receptor tyrosine-protein kinase TYK2 (Homo sapiens) (UniProt P29597); details: Compound concentration 1000.0 nM
Non-receptor tyrosine-protein kinase TYK2 (Homo sapiens), sequence (P29597 whole entry): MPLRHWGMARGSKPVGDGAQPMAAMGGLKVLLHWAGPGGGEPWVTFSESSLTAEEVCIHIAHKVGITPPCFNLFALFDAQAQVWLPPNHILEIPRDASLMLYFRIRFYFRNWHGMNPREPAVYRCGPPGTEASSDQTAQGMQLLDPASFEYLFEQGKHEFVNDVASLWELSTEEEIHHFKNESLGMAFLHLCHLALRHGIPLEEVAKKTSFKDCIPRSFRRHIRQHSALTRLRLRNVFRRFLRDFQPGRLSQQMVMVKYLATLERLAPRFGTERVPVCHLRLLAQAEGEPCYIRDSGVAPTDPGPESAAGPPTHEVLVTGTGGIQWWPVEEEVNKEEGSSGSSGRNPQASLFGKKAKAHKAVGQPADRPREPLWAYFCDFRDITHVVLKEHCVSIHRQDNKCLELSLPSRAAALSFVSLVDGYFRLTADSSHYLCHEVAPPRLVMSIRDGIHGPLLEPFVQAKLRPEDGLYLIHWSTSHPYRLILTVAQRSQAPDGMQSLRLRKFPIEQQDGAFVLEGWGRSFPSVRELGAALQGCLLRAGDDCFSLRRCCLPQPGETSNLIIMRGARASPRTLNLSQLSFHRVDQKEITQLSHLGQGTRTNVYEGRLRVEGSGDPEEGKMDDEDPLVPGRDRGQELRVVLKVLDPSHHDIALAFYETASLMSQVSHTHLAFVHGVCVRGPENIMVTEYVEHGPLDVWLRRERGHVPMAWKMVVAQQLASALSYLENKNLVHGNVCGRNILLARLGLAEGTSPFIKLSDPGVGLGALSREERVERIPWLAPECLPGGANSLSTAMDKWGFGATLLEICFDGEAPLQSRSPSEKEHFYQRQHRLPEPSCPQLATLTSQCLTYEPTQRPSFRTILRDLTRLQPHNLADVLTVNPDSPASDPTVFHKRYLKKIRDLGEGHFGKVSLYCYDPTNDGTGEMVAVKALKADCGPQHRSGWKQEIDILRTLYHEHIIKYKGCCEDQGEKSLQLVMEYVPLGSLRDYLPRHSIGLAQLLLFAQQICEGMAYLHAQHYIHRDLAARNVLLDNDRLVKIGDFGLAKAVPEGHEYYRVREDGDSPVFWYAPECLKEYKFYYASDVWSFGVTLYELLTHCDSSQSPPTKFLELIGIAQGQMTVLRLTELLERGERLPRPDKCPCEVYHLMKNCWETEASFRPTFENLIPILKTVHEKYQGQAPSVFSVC

[32] = molecular target: Serine/threonine-protein kinase/endoribonuclease IRE1 (Homo sapiens) (UniProt O75460); details: Compound concentration 1000.0 nM
[33] = molecular target: Peroxisome proliferator-activated receptor gamma (Homo sapiens) (UniProt P37231); test: PPAR gamma (h) CEREP ligand profiling; details: Compound concentration 10.0 uM
[34] = molecular target: Sodium-dependent dopamine transporter (Homo sapiens) (UniProt Q01959); details: Compound concentration 10.0 uM

## COc1ccc2cc(OCC3(C(=O)O)CN(C(=O)c4ccc(F)cc4)C3)ccc2c1 [PF-04418948]
[1]
  inhibition: -6%
[2]
  residual activity: 87%
[3]
  residual activity: 95%
[4]
  residual activity: 95%
[5]
  residual activity: 84%
[6]
  residual activity: 76%
[7]
  Ki: 4.8 µM (not active)
[8]
  residual activity: 98%
[9]
  inhibition: 2%
[10]
  residual activity: 90%
[11]
  residual activity: 90%
[12]
  Ki: > 10 µM (not active)
[13]
  inhibition: -1%
[14]
  residual activity: 74%
[15]
  residual activity: 81%
[16]
  residual activity: 80%
[17]
  inhibition: 6%
[18]
  residual activity: 71%
[19]
  residual activity: 95%
[20]
  residual activity: 74%
[21]
  residual activity: 88%
[22]
  residual activity: 95%
[23]
  inhibition: -8%
[24]
  residual activity: 98%
[25]
  residual activity: 94%
[26]
  residual activity: 96%
[27]
  inhibition: -7%
[28]
  inhibition: -1%
[29]
  inhibition: 2%
[30]
  inhibition: 6%
[31]
  residual activity: 89%
[32]
  residual activity: 80%
[33]
  inhibition: 14%

## O=C(c1ccc(F)cc1)N1CC(COc2ccc(Br)cc2)(C(=O)O)C1 [PF-04475866]
[34]
  inhibition: 6.07%
